The conditions of series [1]: human.
The conditions of series [2]: human. The source holds these as a separate data set.
The conditions of series [3]: human, serum.
Series [4] in a line: Presence of at least one case with successful reintroduction. [column 'REINT' in source]. As to conditions: human.
The conditions of series [5]: human, serum. This is another data set of the same source.
The conditions of series [6]: human, serum, 4383 h.
For series [7] the following is noted: human. The source holds these as a separate data set.
Series [8] in a line: Times to onset, minimal and maximal, observed in the indexed observations. [column 'DELAI' in source]. Particulars: human.
For series [9] the following is noted: human. The source holds these as a separate data set.
The conditions of series [10]: human. The source holds these as a separate data set.
Series [11] can be described thus: Highest frequency of acute liver toxicity observed during clinical trials, expressed as a percentage. [column '% AIGUE' in source]. As to conditions: human.
A short description of series [12]: Highest frequency of moderate liver toxicity observed during clinical trials, expressed as a percentage. [column '% BIOL' in source]. As to conditions: human.
For series [13] the following is noted: human. The source holds these as a separate data set.
The conditions of series [14]: human. This is another data set of the same source.
The conditions of series [15]: human. This is another data set of the same source.
The conditions of series [16]: human. The source holds these as a separate data set.
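Throughout, for Hepatotoxicity (association with vascular disease): count of indexed literature references reporting vascular liver injury in humans, e.g. peliosis hepatitis, hepatic veno-occlusive disease or Budd-Chiari syndrome.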
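Throughout, for Hepatotoxicity (benign tumour): value is a count of indexed literature references citing a benign tumour confirmed by histopathology.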
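Throughout, for Hepatotoxicity (choleostasis): human cholestatic liver injury, shown by histopathology or by peak ALT or AST elevation over alkaline phosphatase ratio below 2, value counts indexed literature reports.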
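Throughout, for Hepatotoxicity (chronic liver disease): chronic liver injury confirmed by histopathology or persistently raised serum aminotransferase activity beyond 6 months, value given as the count of indexed literature references.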
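Throughout, for Hepatotoxicity (cirrhosis): value is a count of indexed literature references reporting cirrhosis confirmed by histopathology.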
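Throughout, for Hepatotoxicity (cytolytic): human cytolytic liver injury, shown by histopathology or by a ratio above 5 of peak ALT or AST elevation to alkaline phosphatase elevation, value counts indexed references.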
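Throughout, for Hepatotoxicity (granulomatous hepatitis): value is a count of indexed literature references reporting granulomatous liver disease confirmed by histopathology.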
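Throughout, for Hepatotoxicity (malignant tumour): malignant tumour confirmed by histopathology, value gives the count of indexed literature references reporting it.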
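Throughout, for Hepatotoxicity (severe hepatitis): human clinical data: severe hepatitis, meaning potentially life-threatening liver failure or clinically observed cases, the value counts how many indexed literature references report it.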
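Throughout, for Hepatotoxicity (steatosis): steatosis confirmed by histopathology, value is the count of indexed references.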

Take `N[C@@H](Cc1ccc(N(CCCl)CCCl)cc1)C(=O)O`: in series [1], the “Hepatotoxicity (granulomatous hepatitis)” value was determined as 0. For the same compound, the “Hepatotoxicity (choleostasis)” value in [2] is recorded as 1. For the same compound, the “Hepatotoxicity (moderate)” value in [3] came to 1; in series [12], 8%. Moreover, the “Hepatotoxicity (successful reintroduction)” value in [4] is reported as “yes”. Moreover, the “Hepatotoxicity (acute)” value in series [5] worked out at 2; in series [11], 0%. Besides, in series [6], the “Hepatotoxicity (chronic liver disease)” value is recorded as 0. For the same compound, in series [7], the “Hepatotoxicity (cytolytic)” value amounted to 0. Also, in [8], the “Hepatotoxicity (time to onset)” value turned out to be 6 days - 7 weeks. Moreover, in series [9], the “Hepatotoxicity (cirrhosis)” value was 0. In addition, in series [10], the “Hepatotoxicity (steatosis)” value is recorded as 0. For the same compound, the “Hepatotoxicity (severe hepatitis)” value in [13] was 0. The “Hepatotoxicity (association with vascular disease)” value in series [14] was found to be 2. In addition, the “Hepatotoxicity (malignant tumour)” value in series [15] worked out at 0. The “Hepatotoxicity (benign tumour)” value in [16] came out at 0.
In the case of `CCC1(c2ccc(N)cc2)CCC(=O)NC1=O` (stereo not given) [AMINOGLUTETHIMIDE], the “Hepatotoxicity (granulomatous hepatitis)” value in series [1] was found to be 0. For the same compound, in [2], the “Hepatotoxicity (choleostasis)” value was found to be 3. Also, the “Hepatotoxicity (moderate)” value was 4 in series [3] and 67% in [12]. Besides, the “Hepatotoxicity (successful reintroduction)” value in series [4] was “yes”. The “Hepatotoxicity (acute)” value stood at 4 in [5] and 0% in series [11]. In [6], the “Hepatotoxicity (chronic liver disease)” value came out at 0. Moreover, the “Hepatotoxicity (cytolytic)” value in series [7] was found to be 2. The “Hepatotoxicity (time to onset)” value in [8] is recorded as 1 day - 10 weeks. Besides, the “Hepatotoxicity (cirrhosis)” value in [9] was 0. The “Hepatotoxicity (steatosis)” value in series [10] is reported as 0. Also, the “Hepatotoxicity (severe hepatitis)” value in [13] was 0. Besides, the “Hepatotoxicity (association with vascular disease)” value in series [14] worked out at 0. In [15], the “Hepatotoxicity (malignant tumour)” value is 0. The “Hepatotoxicity (benign tumour)” value in series [16] was found to be 0.
As to `Nc1nc(N)c2nc(-c3ccccc3)c(N)nc2n1`, in series [1], the “Hepatotoxicity (granulomatous hepatitis)” value worked out at 0. Also, the “Hepatotoxicity (choleostasis)” value in series [2] stood at 0. The “Hepatotoxicity (moderate)” value is recorded as 1 in [3] and 0% in series [12]. In [4], the “Hepatotoxicity (successful reintroduction)” value was “yes”. The “Hepatotoxicity (acute)” value in series [5] worked out at 1; in [11], 0%. The “Hepatotoxicity (chronic liver disease)” value in series [6] is listed as 0. Further, in series [7], the “Hepatotoxicity (cytolytic)” value is 1. The “Hepatotoxicity (time to onset)” value in series [8] was determined as 2 days - 3 weeks. In series [9], the “Hepatotoxicity (cirrhosis)” value came to 0. Besides, the “Hepatotoxicity (steatosis)” value in [10] was 0. In addition, the “Hepatotoxicity (severe hepatitis)” value in series [13] came to 1. Also, the “Hepatotoxicity (association with vascular disease)” value in [14] was 0. Besides, the “Hepatotoxicity (malignant tumour)” value in [15] stood at 0. Further, the “Hepatotoxicity (benign tumour)” value in [16] came out at 0.
As for `CN(CCCN1c2ccccc2CCc2ccccc21)CC(=O)c1ccc(Cl)cc1` [LOFEPRAMINE], in series [1], the “Hepatotoxicity (granulomatous hepatitis)” value amounted to 0. The “Hepatotoxicity (choleostasis)” value in series [2] is 3. Besides, the entries for the “Hepatotoxicity (moderate)” value in [3] and in series [12] were 7 and 46.5%, respectively. In addition, in [4], the “Hepatotoxicity (successful reintroduction)” value is “yes”. Moreover, the entries for the “Hepatotoxicity (acute)” value in series [5] and in series [11] were 3 and 2.3%, respectively. Moreover, the “Hepatotoxicity (chronic liver disease)” value in series [6] is reported as 0. Also, the “Hepatotoxicity (cytolytic)” value in [7] turned out to be 2. In [8], the “Hepatotoxicity (time to onset)” value was determined as 1 week - 12 weeks. For the same compound, the “Hepatotoxicity (cirrhosis)” value in series [9] is recorded as 0. Further, the “Hepatotoxicity (steatosis)” value in series [10] is recorded as 0. Further, the “Hepatotoxicity (severe hepatitis)” value in [13] is listed as 1. Moreover, the “Hepatotoxicity (association with vascular disease)” value in series [14] is given as 0. Also, in series [15], the “Hepatotoxicity (malignant tumour)” value is 0. In [16], the “Hepatotoxicity (benign tumour)” value is listed as 0.
As to `CCC1(c2ccccc2)C(=O)NC(=O)N(C)C1=O` (stereo not given) [MEPHOBARBITAL], the “Hepatotoxicity (granulomatous hepatitis)” value in [1] turned out to be 0. Besides, in series [2], the “Hepatotoxicity (choleostasis)” value is 0. Also, the “Hepatotoxicity (moderate)” value in series [3] came to 0; in series [12] it was 0%. Also, the “Hepatotoxicity (successful reintroduction)” value in [4] is reported as “yes”. The “Hepatotoxicity (acute)” value in series [5] stood at 1; in series [11], 0%. Further, in series [6], the “Hepatotoxicity (chronic liver disease)” value amounted to 0. Also, the “Hepatotoxicity (cytolytic)” value in series [7] is listed as 1. Further, the “Hepatotoxicity (time to onset)” value in series [8] stood at 3 months. Besides, the “Hepatotoxicity (cirrhosis)” value in series [9] is recorded as 0. Also, the “Hepatotoxicity (steatosis)” value in series [10] is given as 0. Also, the “Hepatotoxicity (severe hepatitis)” value in [13] amounted to 0. Moreover, the “Hepatotoxicity (association with vascular disease)” value in series [14] is on record as 0. In addition, the “Hepatotoxicity (malignant tumour)” value in series [15] was 0. For the same compound, in [16], the “Hepatotoxicity (benign tumour)” value is recorded as 0.
On to `COc1c2occc2cc2ccc(=O)oc12` [METHOXSALEN], for which, in [1], the “Hepatotoxicity (granulomatous hepatitis)” value is recorded as 0. For the same compound, in series [2], the “Hepatotoxicity (choleostasis)” value is 0. In addition, the “Hepatotoxicity (moderate)” value in series [3] is recorded as 1; in series [12] (Liver) it was 0%. Also, the “Hepatotoxicity (successful reintroduction)” value in [4] is recorded as “yes”. For the same compound, in series [6], the “Hepatotoxicity (chronic liver disease)” value came to 0. For the same compound, in [7], the “Hepatotoxicity (cytolytic)” value is 3. In addition, the “Hepatotoxicity (time to onset)” value in [8] is given as 2 hours - 5 months. In addition, in series [9], the “Hepatotoxicity (cirrhosis)” value was 0. In addition, the “Hepatotoxicity (steatosis)” value in [10] is given as 0. The “Hepatotoxicity (acute)” value in series [11] (Liver) came out at 0%. In [13] (Liver), the “Hepatotoxicity (severe hepatitis)” value came out at 1. In series [14], the “Hepatotoxicity (association with vascular disease)” value stood at 0. Further, the “Hepatotoxicity (malignant tumour)” value in series [15] was 0. For the same compound, the “Hepatotoxicity (benign tumour)” value in [16] turned out to be 0.
As to `CCc1c2c(nc3ccc(OC(=O)N4CCC(N5CCCCC5)CC4)cc13)-c1cc3c(c(=O)n1C2)COC(=O)[C@]3(O)CC` [IRINOTECAN], the “Hepatotoxicity (granulomatous hepatitis)” value in series [1] came to 0. In series [2], the “Hepatotoxicity (choleostasis)” value was 2. Besides, the “Hepatotoxicity (moderate)” value in series [3] worked out at 12; in series [12] (Liver), 13.3%. In addition, the “Hepatotoxicity (successful reintroduction)” value in [4] is “yes”. The “Hepatotoxicity (acute)” value is reported as 3 in [5] and 4.2% in series [11] (Liver). In addition, the “Hepatotoxicity (chronic liver disease)” value in series [6] came out at 0. Further, the “Hepatotoxicity (cytolytic)” value in series [7] is 1. For the same compound, the “Hepatotoxicity (cirrhosis)” value in series [9] is given as 0. Besides, the “Hepatotoxicity (steatosis)” value in series [10] is listed as 0. The “Hepatotoxicity (severe hepatitis)” value in [13] (Liver) turned out to be 0. Also, the “Hepatotoxicity (association with vascular disease)” value in series [14] was 0. Also, in [15], the “Hepatotoxicity (malignant tumour)” value is 0. In addition, the “Hepatotoxicity (benign tumour)” value in [16] turned out to be 0.
Take `CNC1=Nc2ccc(Cl)cc2C(c2ccccc2)=[N+]([O-])C1` [CHLORDIAZEPOXIDE]: in [1], the “Hepatotoxicity (granulomatous hepatitis)” value turned out to be 0. For the same compound, the “Hepatotoxicity (choleostasis)” value in series [2] worked out at 3. Also, the “Hepatotoxicity (moderate)” value is 3 in [3] and 11% in series [12]. In series [4], the “Hepatotoxicity (successful reintroduction)” value is listed as “yes”. In series [6], the “Hepatotoxicity (chronic liver disease)” value is recorded as 0. Besides, in series [7], the “Hepatotoxicity (cytolytic)” value turned out to be 1. Also, the “Hepatotoxicity (time to onset)” value in series [8] is 2 days - 3 years. The “Hepatotoxicity (cirrhosis)” value in [9] was determined as 0. For the same compound, the “Hepatotoxicity (steatosis)” value in series [10] stood at 0. In series [11], the “Hepatotoxicity (acute)” value amounted to 0%. Further, in [13], the “Hepatotoxicity (severe hepatitis)” value came out at 0. Further, the “Hepatotoxicity (association with vascular disease)” value in series [14] came out at 0. Moreover, the “Hepatotoxicity (malignant tumour)” value in series [15] was 0. Besides, the “Hepatotoxicity (benign tumour)” value in series [16] is recorded as 0.
Regarding `COc1cc(Cc2cnc(N)nc2N)cc(OC)c1OC` [TRIMETHOPRIM], the “Hepatotoxicity (granulomatous hepatitis)” value in series [1] (Liver) stood at 0. For the same compound, the “Hepatotoxicity (choleostasis)” value in [2] (Liver) was found to be 5. In addition, the “Hepatotoxicity (moderate)” value came to 1 in series [3] and 5.9% in [12] (Liver). In addition, the “Hepatotoxicity (successful reintroduction)” value in series [4] was “yes”. In addition, the “Hepatotoxicity (chronic liver disease)” value in [6] amounted to 0. Also, the “Hepatotoxicity (cytolytic)” value in [7] (Liver) was found to be 2. Besides, the “Hepatotoxicity (time to onset)” value in series [8] is 5 days - 24 days. In series [9], the “Hepatotoxicity (cirrhosis)” value was found to be 0. The “Hepatotoxicity (steatosis)” value in [10] is 0. In series [11] (Liver), the “Hepatotoxicity (acute)” value was 0%. Further, the “Hepatotoxicity (severe hepatitis)” value in series [13] (Liver) came out at 1. Besides, the “Hepatotoxicity (association with vascular disease)” value in series [14] was found to be 0. The “Hepatotoxicity (malignant tumour)” value in [15] was found to be 0. Further, in [16], the “Hepatotoxicity (benign tumour)” value is listed as 0.
Consider `CC(C(=O)Nc1cc(-c2ccccc2)nn1-c1ccccc1)N(C)C` (stereo not given) [DIFENAMIZOLE], for which the “Hepatotoxicity (granulomatous hepatitis)” value in series [1] was 0. The “Hepatotoxicity (choleostasis)” value in series [2] was 0. Further, the “Hepatotoxicity (moderate)” value in [3] was determined as 0; in series [12], 0%. In addition, in [4], the “Hepatotoxicity (successful reintroduction)” value is “yes”. The “Hepatotoxicity (acute)” value in [5] turned out to be 1; in series [11] it was 0%. Besides, the “Hepatotoxicity (chronic liver disease)” value in series [6] amounted to 0. Also, the “Hepatotoxicity (cytolytic)” value in series [7] was 1. In addition, in [9], the “Hepatotoxicity (cirrhosis)” value is 0. Moreover, the “Hepatotoxicity (steatosis)” value in [10] amounted to 0. In addition, in series [13], the “Hepatotoxicity (severe hepatitis)” value was found to be 1. The “Hepatotoxicity (association with vascular disease)” value in [14] is given as 0. The “Hepatotoxicity (malignant tumour)” value in [15] was 0. Moreover, in series [16], the “Hepatotoxicity (benign tumour)” value is reported as 0.
